Laboratory results taken from ChEMBL document CHEMBL5465560, “Selectivity Literature for EUbOPEN Chemogenomic Library” (2024).

Key:
[1] = target: T1, Lymphokine-activated killer T-cell-originated protein kinase (Homo sapiens) (UniProt Q96KB5); assay: Selectivity interaction (Kinase panel (DSF assay)) EUB0001559a PBK
T1 sequence (whole entry): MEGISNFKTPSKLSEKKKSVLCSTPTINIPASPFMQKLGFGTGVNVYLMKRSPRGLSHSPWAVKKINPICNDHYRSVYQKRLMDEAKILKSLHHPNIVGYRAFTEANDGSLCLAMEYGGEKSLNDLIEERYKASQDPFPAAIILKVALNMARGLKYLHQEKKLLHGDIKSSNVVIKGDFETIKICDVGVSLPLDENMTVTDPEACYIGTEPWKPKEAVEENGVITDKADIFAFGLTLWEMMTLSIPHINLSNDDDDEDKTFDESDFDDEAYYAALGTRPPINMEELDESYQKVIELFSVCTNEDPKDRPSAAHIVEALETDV

[2] = target: Serine/threonine-protein kinase MRCK beta (Homo sapiens) (UniProt Q9Y5S2); assay: Selectivity interaction (Kinase panel (Z-LYTE Assay)) EUB0001632a CDC42BPB; conditions: at 10 µM
[3] = target: Tyrosine-protein kinase Fer (Homo sapiens) (UniProt P16591); assay: Selectivity interaction (Kinase panel (Z-LYTE Assay)) EUB0001632a FER; conditions: at 10 µM
[4] = system: Serine/threonine-protein kinase B-raf (Homo sapiens), P15056 [V600E]; assay: (§1) Selectivity interaction (KinomeScan (DiscoverX)) EUB0000666a BRAF; conditions: at 10 µM
[5] = target: Serine/threonine-protein kinase B-raf (Homo sapiens) (UniProt P15056); assay: as §1; conditions: at 10 µM
[6] = target: Ephrin type-A receptor 7 (Homo sapiens) (UniProt Q15375); conditions: at 10 µM
Insulin receptor = Insulin receptor (Homo sapiens, UniProt P06213); assay: Selectivity interaction (Kinase panel (33PanQinase(R) Activity Assay)) EUB0000877a INSR
[7] = target: T2, NUAK family SNF1-like kinase 2 (Homo sapiens) (UniProt Q9H093); assay: Selectivity interaction (ProQinase) EUB0000171b NUAK2
T2 sequence (whole entry): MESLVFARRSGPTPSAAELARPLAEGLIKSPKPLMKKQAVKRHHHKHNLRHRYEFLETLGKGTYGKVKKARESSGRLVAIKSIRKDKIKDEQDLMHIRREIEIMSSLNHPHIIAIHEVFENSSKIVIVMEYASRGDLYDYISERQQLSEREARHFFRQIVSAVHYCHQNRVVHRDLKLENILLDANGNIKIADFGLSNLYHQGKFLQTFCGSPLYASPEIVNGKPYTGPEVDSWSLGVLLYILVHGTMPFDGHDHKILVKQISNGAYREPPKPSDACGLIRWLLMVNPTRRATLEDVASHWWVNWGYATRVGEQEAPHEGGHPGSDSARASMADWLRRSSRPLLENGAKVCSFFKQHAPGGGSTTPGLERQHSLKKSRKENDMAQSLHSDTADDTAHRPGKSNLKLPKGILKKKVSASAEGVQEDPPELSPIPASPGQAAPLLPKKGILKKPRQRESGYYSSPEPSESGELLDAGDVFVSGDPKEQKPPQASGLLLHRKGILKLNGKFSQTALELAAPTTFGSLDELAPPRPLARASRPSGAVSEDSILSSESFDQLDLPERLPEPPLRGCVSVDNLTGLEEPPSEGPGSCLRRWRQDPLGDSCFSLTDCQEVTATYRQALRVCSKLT

[8] = target: T3, Serine/threonine-protein kinase haspin (Homo sapiens) (UniProt Q8TF76); assay: Selectivity interaction (KinomeScan (DiscoverX)) EUB0000607a GSG2; conditions: at 10 µM
T3 sequence (whole entry): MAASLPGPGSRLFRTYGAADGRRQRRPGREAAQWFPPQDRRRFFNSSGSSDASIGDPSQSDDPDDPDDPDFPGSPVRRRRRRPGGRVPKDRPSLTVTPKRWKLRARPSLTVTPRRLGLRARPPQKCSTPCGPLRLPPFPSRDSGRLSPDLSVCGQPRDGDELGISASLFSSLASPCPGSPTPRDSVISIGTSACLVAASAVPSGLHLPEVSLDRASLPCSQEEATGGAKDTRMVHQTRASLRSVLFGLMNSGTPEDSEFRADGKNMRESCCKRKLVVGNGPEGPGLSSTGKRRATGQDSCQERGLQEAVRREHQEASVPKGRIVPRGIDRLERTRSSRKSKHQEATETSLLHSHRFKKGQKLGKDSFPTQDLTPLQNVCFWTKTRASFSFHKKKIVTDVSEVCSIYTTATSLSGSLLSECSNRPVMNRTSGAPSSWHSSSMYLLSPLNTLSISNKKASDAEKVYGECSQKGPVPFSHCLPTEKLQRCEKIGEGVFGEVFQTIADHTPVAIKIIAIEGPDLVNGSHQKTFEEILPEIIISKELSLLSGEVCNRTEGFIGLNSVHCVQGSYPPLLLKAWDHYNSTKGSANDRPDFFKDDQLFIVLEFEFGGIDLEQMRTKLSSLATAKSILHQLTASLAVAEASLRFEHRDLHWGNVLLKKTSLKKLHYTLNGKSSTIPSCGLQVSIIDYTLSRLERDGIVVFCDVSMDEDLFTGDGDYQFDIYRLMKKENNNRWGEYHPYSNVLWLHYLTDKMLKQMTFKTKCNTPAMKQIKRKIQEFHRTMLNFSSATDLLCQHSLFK

[9] = target: T4, STE20-related kinase adapter protein alpha (Homo sapiens) (UniProt Q7RTN6); assay: Selectivity interaction (ActivX KiNativ screen (kinase selectivity in THP-1 cell lysates)) EUB0000639a STRADA; format: subcellular; conditions: lysate, at 0.04 µM
T4 sequence (whole entry): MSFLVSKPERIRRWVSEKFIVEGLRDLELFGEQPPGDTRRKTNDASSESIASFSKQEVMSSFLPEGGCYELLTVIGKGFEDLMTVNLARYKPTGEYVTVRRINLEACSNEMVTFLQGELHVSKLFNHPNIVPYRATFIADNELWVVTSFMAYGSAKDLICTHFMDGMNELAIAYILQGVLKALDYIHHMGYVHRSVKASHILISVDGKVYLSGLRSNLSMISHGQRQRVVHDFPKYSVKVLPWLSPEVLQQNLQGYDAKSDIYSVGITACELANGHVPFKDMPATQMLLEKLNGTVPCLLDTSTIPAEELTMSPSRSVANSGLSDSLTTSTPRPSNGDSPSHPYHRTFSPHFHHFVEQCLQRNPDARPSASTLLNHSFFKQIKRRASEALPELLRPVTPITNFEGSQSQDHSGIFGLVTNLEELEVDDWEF

Chain of Ephrin type-A receptor 7 (Homo sapiens) (Q15375 28-998 limits assumed): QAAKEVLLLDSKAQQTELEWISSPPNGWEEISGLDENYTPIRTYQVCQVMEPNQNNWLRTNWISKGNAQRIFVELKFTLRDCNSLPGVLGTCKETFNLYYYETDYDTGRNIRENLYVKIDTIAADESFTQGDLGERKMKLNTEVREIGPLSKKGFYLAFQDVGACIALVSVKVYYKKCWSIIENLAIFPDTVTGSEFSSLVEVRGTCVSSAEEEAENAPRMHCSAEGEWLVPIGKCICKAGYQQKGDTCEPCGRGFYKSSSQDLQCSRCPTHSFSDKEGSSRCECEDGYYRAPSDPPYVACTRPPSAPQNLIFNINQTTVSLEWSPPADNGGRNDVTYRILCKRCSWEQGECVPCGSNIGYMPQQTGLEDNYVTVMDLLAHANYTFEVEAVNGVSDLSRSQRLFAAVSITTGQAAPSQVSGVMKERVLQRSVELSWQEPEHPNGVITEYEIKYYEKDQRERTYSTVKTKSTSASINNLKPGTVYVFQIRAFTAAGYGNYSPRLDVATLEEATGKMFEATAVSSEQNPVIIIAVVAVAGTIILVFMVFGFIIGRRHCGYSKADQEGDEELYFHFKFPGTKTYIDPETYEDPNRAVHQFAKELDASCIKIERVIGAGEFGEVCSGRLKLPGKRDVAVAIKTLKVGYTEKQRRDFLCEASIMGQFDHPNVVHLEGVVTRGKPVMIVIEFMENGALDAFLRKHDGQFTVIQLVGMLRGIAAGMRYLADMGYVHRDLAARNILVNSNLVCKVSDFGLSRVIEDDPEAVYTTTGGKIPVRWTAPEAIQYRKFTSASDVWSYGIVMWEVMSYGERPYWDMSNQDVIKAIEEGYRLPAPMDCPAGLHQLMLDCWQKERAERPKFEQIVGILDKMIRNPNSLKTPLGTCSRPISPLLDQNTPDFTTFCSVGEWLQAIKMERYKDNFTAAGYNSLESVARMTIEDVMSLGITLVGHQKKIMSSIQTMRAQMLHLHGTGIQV
Chain of Serine/threonine-protein kinase B-raf (Homo sapiens) (P15056 whole entry): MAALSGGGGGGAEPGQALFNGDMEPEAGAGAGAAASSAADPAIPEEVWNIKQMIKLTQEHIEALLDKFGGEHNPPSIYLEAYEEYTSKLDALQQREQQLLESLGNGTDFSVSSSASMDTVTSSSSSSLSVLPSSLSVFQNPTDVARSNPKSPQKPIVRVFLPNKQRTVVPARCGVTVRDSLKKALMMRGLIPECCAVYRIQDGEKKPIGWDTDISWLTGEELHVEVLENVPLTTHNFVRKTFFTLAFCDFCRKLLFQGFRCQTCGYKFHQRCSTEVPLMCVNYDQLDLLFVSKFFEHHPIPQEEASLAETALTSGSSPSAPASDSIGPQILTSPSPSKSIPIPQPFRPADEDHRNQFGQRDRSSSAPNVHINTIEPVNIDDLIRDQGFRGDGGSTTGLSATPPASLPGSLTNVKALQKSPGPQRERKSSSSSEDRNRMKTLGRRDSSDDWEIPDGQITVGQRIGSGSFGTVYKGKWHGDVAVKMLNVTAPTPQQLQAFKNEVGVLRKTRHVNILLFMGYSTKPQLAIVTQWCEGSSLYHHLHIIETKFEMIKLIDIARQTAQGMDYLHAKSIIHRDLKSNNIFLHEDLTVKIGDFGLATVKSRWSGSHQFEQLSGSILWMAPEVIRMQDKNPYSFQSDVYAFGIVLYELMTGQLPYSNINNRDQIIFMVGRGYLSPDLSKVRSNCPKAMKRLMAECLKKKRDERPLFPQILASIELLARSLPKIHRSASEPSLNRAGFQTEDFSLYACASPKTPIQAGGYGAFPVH
Chain of Insulin receptor (P06213 28-758 limits assumed): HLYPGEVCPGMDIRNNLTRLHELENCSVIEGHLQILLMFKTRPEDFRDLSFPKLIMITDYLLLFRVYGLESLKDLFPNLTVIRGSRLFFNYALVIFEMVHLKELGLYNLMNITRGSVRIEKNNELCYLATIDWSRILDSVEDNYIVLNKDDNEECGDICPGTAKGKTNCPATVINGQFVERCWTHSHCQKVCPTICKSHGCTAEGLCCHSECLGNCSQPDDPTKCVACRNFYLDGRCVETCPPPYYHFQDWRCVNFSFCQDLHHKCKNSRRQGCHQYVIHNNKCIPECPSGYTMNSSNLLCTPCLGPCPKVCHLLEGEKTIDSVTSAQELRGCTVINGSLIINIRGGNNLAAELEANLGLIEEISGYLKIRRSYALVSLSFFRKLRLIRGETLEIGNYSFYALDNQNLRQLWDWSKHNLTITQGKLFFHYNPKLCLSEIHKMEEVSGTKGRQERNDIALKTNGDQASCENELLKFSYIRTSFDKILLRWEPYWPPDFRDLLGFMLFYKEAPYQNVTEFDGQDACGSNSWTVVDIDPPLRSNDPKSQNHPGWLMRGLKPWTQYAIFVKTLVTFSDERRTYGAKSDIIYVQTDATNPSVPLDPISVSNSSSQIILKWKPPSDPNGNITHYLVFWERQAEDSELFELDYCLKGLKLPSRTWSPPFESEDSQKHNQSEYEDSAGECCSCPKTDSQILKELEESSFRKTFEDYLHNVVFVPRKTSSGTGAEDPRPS
Chain of Insulin receptor (P06213 763-1382 limits assumed): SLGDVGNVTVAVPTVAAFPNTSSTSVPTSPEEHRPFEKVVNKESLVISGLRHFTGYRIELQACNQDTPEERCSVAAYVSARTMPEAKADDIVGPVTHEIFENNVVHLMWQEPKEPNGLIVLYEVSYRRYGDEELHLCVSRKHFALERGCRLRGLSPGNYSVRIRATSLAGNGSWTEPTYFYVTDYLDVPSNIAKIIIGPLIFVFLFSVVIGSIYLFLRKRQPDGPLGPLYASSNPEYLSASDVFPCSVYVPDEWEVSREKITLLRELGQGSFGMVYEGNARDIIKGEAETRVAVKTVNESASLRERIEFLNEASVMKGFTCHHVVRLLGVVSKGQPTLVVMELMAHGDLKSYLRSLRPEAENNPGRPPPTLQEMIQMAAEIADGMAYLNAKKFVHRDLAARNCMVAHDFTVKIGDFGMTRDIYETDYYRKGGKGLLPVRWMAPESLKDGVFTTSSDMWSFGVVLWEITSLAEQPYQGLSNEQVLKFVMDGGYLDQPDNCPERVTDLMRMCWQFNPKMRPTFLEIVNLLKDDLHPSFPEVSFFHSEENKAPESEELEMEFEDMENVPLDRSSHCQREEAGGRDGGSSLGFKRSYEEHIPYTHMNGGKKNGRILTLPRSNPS
Chain of Serine/threonine-protein kinase B-raf (Homo sapiens), P15056 [V600E] (P15056 whole entry V600E): as the sequence (P15056 whole entry) above, with V600E counted along it
Chain of Serine/threonine-protein kinase MRCK beta (Homo sapiens) (Q9Y5S2 whole entry): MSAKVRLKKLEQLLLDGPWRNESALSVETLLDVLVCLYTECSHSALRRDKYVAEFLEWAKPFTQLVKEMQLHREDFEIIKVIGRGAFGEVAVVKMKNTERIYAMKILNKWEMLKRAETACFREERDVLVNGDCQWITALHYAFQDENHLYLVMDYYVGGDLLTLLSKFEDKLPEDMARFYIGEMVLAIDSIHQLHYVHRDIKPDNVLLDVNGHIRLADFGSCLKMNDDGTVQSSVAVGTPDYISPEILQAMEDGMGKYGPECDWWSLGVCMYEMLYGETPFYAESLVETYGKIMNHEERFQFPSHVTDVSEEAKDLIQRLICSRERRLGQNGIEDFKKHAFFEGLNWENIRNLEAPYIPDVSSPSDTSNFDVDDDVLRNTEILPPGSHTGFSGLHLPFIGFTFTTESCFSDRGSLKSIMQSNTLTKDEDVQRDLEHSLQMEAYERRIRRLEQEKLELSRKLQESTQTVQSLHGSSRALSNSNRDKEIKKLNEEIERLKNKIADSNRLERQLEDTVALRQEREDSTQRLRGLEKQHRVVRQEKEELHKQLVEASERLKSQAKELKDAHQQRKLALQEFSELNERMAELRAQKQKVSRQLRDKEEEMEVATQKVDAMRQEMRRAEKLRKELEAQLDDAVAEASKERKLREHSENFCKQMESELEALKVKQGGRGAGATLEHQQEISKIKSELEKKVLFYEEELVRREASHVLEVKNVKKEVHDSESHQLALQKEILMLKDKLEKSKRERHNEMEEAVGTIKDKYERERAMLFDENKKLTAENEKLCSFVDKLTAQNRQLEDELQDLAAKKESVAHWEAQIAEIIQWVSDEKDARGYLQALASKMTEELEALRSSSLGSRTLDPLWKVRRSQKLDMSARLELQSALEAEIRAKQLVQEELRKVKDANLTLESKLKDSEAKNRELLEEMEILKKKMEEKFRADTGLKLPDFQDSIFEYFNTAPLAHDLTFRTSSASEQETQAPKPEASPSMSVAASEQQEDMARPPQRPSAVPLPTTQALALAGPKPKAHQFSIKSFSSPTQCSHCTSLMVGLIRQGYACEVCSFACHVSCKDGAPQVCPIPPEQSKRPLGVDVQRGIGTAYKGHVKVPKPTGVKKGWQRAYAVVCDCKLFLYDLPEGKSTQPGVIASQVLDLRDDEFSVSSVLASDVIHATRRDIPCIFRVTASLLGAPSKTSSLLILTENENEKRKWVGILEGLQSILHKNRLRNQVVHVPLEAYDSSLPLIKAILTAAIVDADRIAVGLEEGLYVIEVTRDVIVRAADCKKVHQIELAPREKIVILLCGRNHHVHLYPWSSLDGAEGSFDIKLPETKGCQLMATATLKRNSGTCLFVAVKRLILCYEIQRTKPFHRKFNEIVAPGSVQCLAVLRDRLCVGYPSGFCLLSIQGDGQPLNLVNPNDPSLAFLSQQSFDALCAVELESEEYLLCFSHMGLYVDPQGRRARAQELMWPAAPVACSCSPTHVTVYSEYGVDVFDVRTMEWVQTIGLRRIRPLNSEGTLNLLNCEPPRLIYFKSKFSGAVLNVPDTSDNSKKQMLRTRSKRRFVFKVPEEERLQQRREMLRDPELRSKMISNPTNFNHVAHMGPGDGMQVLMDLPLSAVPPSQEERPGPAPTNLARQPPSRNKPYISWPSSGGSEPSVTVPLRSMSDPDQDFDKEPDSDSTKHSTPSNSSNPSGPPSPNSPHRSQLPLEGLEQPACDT

With `CN(C(=O)c1cnn2cccnc12)c1cc2c(cc1N1CCOCC1)C(=O)N(C[C@@H](F)C(C)(C)O)C2` the dTM [1] was 0.7 K.
`Cn1cc(-n2cnc3c(NCc4nc5cc(Cl)c(Cl)cc5[nH]4)nc(N4CCOCC4)nc32)cn1` gave a % of control [2] of 3.7% and a % of control [3] of 3.17%.
`O=C(NOC[C@H](O)CO)c1ccc(F)c(F)c1Nc1ccc(I)cc1F` was tested, and the % of control [4] was 100% and the % of control [5] was 98%.
Work on `Cc1cc([C@@H](C)Nc2ccccc2C(=O)O)c2nc(N3CCOCC3)cc(=O)n2c1` [AZD-6482] yielded a % of control [6] of 89%.
`CCC(=O)N1CC[C@H](Nc2ncnc3c2CN(c2cnc(OC)c(C(F)(F)F)c2)CC3)C1` [LENIOLISIB] gave an IC50 (Insulin receptor) of over 10 µM.
In the case of `C=CC(=O)Nc1cccc(C(=O)Nc2ccc(Nc3cc(-c4[nH]c(SC)nc4C)ccn3)cc2)c1`, the % of control ([7]; at 1 µM) is reported as 99% and the % of control ([7]; at 5 µM) is reported as 87%.
In the case of `CNC(=O)Nc1ccc(-c2nc(N3CC4CCC(C3)O4)c3cnn(C4CCC5(CC4)OCCO5)c3n2)cc1`, the % of control [8] is reported as 100%.
`CC[C@@H]1[C@H](F)C(=O)N[C@@H]1COc1nccc2cc(C(N)=O)c(OC)cc12` [ZIMLOVISERTIB] showed a % of inhibition [9] of -6%.
